Patent US20170269061A1, “METHOD FOR ASSESSING SENSITIVITY OF A TARGET DRUG IN VITRO AND A BIOMARKER USED THEREOF” (Tunghai University, priority 2016, published 2017)

What was measured:
[1] = system: SKBR-3 cells
Description: Pro-survival protein Bcl-2 expression in each of the cells, culturing under different condition in example 7 at 48 hours, were determined by Western blot.
Using an annexin V detection kit (Invitrogen, ThermoFisher, Waltham, Mass., USA) to label cell surface phosphatidylserine of apoptotic cells and analysis these stained cells by flow cytometry. […] Co-staining images were taken by inverted fluorescence microscope shown in FIG. 15, wherein green color indicates annexin V positive apoptotic cell, red color indicates PI positive necrotic cell. Annexin V stained cells with PI positive staining were excluded as necrotic cells, apoptotic cells with only annexin V staining were counted and divided by total cells as the percentage of apoptosis. […] And, annexin V positive/PI negative apoptosis in FIG. 15 was quantified.

[2] = system: SKBR-3 cells; conditions: 1 μg/ml T-DM1 vs 10 μg/ml trastuzumab, 72 hour, p<0.01
Description: After culturing each of the cells under different condition in example 7, 0.1 ml of 0.4% trypan blue and deionized water (1:1) was added. Dead cells were stained blue, while live cells remained unstained. Therefore, the number of dead cells could be estimated and cell viability estimated with a hemocytometer. Wherein, the cell mortality was expressed as the percentage of trypan blue-positive cells compared to the total number of cells and the viability percentage was presented by the number of live cells divided by the number of untreated control cells×100.

[3] = system: BT-474 cells; assay: Immunofluorescence microscopy of drug localization (Cell Experiment I); type: cell-based; conditions: T-DM1 1 μg/ml or trastuzumab 10 μg/ml for 30 min
Description: (§1) After washing, each of the cells was fixed with 3.7% formaldehyde and permeabilized with 0.1% Triton-X 100. The fixed cells were incubated with rabbit anti-caveolin-1 antibody (1:100 dilution in PBS/0.1% Triton-100/3% BSA) at room temperature for 1 hour and then incubated with Cy3-conjugated anti-rabbit secondary antibodies (1:200 dilution in PBS/0.1% Triton-100/3% BSA) at room temperature for 1 hour.

[4] = system: SKBR-3 cells; assay: as above; type: cell-based; conditions: T-DM1 1 μg/ml or trastuzumab 10 μg/ml for 30 min, co-staining with caveolin-1
Description: as §1

[5] = system: SKBR-3 cells; conditions: SKBR-3 with caveolin-1 siRNA; T-DM1 72 hours; p<0.05
Description: BT-474 cells were grown on plates in normal growth medium without antibiotics, and Lipofectamine 2000 transfection reagent (Invitrogen, ThermoFisher, Waltham, Mass., USA) was used to induce GFP-tagged caveolin-1 (Addgene, Cambridge, Mass., USA) overexpression. Caveolin-1siRNA (Dharmacon, GE health care, Lafayette, Colo., USA) was used in the knockdown experiment in SKBR-3 cells.

[6] = system: MDA-MB-231, SKBR-3 and BT-474 cells; assay: Phase contrast observation of treated cells (Cell Experiment II); type: cell-based; conditions: 1 μg/ml paclitaxel, 72 hour; compared with 10 μg/ml trastuzumab and 1 μg/ml T-DM1

trastuzumab emtansine [T-DM1]
Bcl-2 expression level ([1]; 1 μg/ml T-DM1, 48 hours, Western blot): lower level of Bcl-2
drug sensitivity (cell viability) with pan-caspase inhibitor Z-VAD-FMK ([1]; 1 μg/ml T-DM1 plus Z-VAD-FMK): decreased
necrotic cells (PI staining) ([1]; T-DM1 treated): fewer necrotic cells
percentage of apoptosis (annexin V) ([1]; T-DM1 treated): increased percentage of apoptosis
cell sensitivity (cell viability) versus trastuzumab [2]: significantly more sensitive
localization of drug in cells [3]: localized only in the cell membrane
localization of drug in cells [4]: colocalized in the SKBR-3 cell membrane and cytosol
T-DM1 efficacy on CAV-1 knockdown [5]: significantly reduced T-DM1 efficacy

CC(=O)O[C@H]1C(=O)[C@@]2(C)[C@H]([C@H](OC(=O)c3ccccc3)[C@]3(O)C[C@H](OC(=O)[C@H](O)[C@@H](NC(=O)c4ccccc4)c4ccccc4)C(C)=C1C3(C)C)[C@]1(OC(C)=O)CO[C@@H]1C[C@@H]2O [paclitaxel]
cytotoxicity (phase contrast) [6]: most cytotoxicity
